Test results: ChEMBL document CHEMBL1147101, “Development and persistence of antimicrobial resistance in Pseudomonas aeruginosa: a longitudinal observation in mechanically ventilated patients” (Antimicrob Agents Chemother, 2007)
The source made the active and inactive calls. The rule behind the calls is not given here.

Key:
Assay type in all cases: functional, organism-based
Conditions in all cases: Trachea
[1] = test system: Pseudomonas aeruginosa; assay: Antimicrobial activity against Pseudomonas aeruginosa 19C7 tracheal isolates from mechanically ventilated chronic respiratory insufficiency patient
[2] = test system: Pseudomonas aeruginosa; assay: Antimicrobial activity against Pseudomonas aeruginosa 15G2 tracheal isolates from mechanically ventilated chronic respiratory insufficiency patient
[3] = test system: Pseudomonas aeruginosa; assay: Antimicrobial activity against Pseudomonas aeruginosa 2A2 tracheal isolates from mechanically ventilated tuberculosis patient
[4] = test system: Pseudomonas aeruginosa; assay: Antimicrobial activity against Pseudomonas aeruginosa 65.36-4 tracheal isolates from mechanically ventilated tuberculosis patient
[5] = test system: Pseudomonas aeruginosa; assay: Antimicrobial activity against Pseudomonas aeruginosa 10A6 tracheal isolates from mechanically ventilated chronic respiratory insufficiency patient
[6] = test system: Pseudomonas aeruginosa; assay: Antimicrobial activity against Pseudomonas aeruginosa 8B11 tracheal isolates from mechanically ventilated chronic respiratory insufficiency patient
[7] = test system: Pseudomonas aeruginosa; assay: Antimicrobial activity against Pseudomonas aeruginosa 24E5 tracheal isolates from mechanically ventilated chronic respiratory insufficiency patient
[8] = test system: Pseudomonas aeruginosa; assay: Antimicrobial activity against Pseudomonas aeruginosa 22D2 tracheal isolates from mechanically ventilated chronic respiratory insufficiency patient
[9] = test system: Pseudomonas aeruginosa; assay: Antimicrobial activity against Pseudomonas aeruginosa 1A9 tracheal isolates from mechanically ventilated tuberculosis patient
[10] = test system: Pseudomonas aeruginosa; assay: Antimicrobial activity against Pseudomonas aeruginosa 19B6 tracheal isolates from mechanically ventilated chronic respiratory insufficiency patient
[11] = test system: Pseudomonas aeruginosa; assay: Antimicrobial activity against Pseudomonas aeruginosa 16D5 tracheal isolates from mechanically ventilated chronic respiratory insufficiency patient
[12] = test system: Pseudomonas aeruginosa; assay: Antimicrobial activity against Pseudomonas aeruginosa 22D9 tracheal isolates from mechanically ventilated chronic respiratory insufficiency patient
[13] = test system: Pseudomonas aeruginosa; assay: Antimicrobial activity against Pseudomonas aeruginosa 2F6 tracheal isolates from mechanically ventilated tuberculosis patient
[14] = test system: Pseudomonas aeruginosa; assay: Antimicrobial activity against Pseudomonas aeruginosa 2C2 tracheal isolates from mechanically ventilated tuberculosis patient
[15] = test system: Pseudomonas aeruginosa; assay: Antimicrobial activity against Pseudomonas aeruginosa 2A9 tracheal isolates from mechanically ventilated tuberculosis patient
[16] = test system: Pseudomonas aeruginosa; assay: Antimicrobial activity against Pseudomonas aeruginosa 22E1 tracheal isolates from mechanically ventilated chronic respiratory insufficiency patient
[17] = test system: Pseudomonas aeruginosa; assay: Antimicrobial activity against Pseudomonas aeruginosa 10B1 tracheal isolates from mechanically ventilated chronic respiratory insufficiency patient
[18] = test system: Pseudomonas aeruginosa; assay: Antimicrobial activity against Pseudomonas aeruginosa 5F2 tracheal isolates from mechanically ventilated chronic respiratory insufficiency patient
[19] = test system: Pseudomonas aeruginosa; assay: Antimicrobial activity against Pseudomonas aeruginosa 5F8 tracheal isolates from mechanically ventilated chronic respiratory insufficiency patient
[20] = test system: Pseudomonas aeruginosa; assay: Antimicrobial activity against Pseudomonas aeruginosa 13E1 tracheal isolates from mechanically ventilated chronic respiratory insufficiency patient
[21] = test system: Pseudomonas aeruginosa; assay: Antimicrobial activity against Pseudomonas aeruginosa 9B2 tracheal isolates from mechanically ventilated chronic respiratory insufficiency patient
[22] = test system: Pseudomonas aeruginosa; assay: Antimicrobial activity against Pseudomonas aeruginosa 22E3 tracheal isolates from mechanically ventilated chronic respiratory insufficiency patient
[23] = test system: Pseudomonas aeruginosa; assay: Antimicrobial activity against Pseudomonas aeruginosa 65.33-4 tracheal isolates from mechanically ventilated tuberculosis patient
[24] = test system: Pseudomonas aeruginosa; assay: Antimicrobial activity against Pseudomonas aeruginosa 65.38-3 tracheal isolates from mechanically ventilated tuberculosis patient
[25] = test system: Pseudomonas aeruginosa; assay: Antimicrobial activity against Pseudomonas aeruginosa 2A7 tracheal isolates from mechanically ventilated tuberculosis patient
[26] = test system: Pseudomonas aeruginosa; assay: Antimicrobial activity against Pseudomonas aeruginosa 12A7 tracheal isolates from mechanically ventilated chronic respiratory insufficiency patient
[27] = test system: Pseudomonas aeruginosa; assay: Antimicrobial activity against Pseudomonas aeruginosa 8A2 tracheal isolates from mechanically ventilated chronic respiratory insufficiency patient
[28] = test system: Pseudomonas aeruginosa; assay: Antimicrobial activity against Pseudomonas aeruginosa P21.21 tracheal isolates from mechanically ventilated tuberculosis patient
[29] = test system: Pseudomonas aeruginosa; assay: Antimicrobial activity against Pseudomonas aeruginosa 12A3 tracheal isolates from mechanically ventilated chronic respiratory insufficiency patient
[30] = test system: Pseudomonas aeruginosa; assay: Antimicrobial activity against Pseudomonas aeruginosa 9A10 tracheal isolates from mechanically ventilated chronic respiratory insufficiency patient
[31] = test system: Pseudomonas aeruginosa; assay: Antimicrobial activity against Pseudomonas aeruginosa 65.38-1 tracheal isolates from mechanically ventilated tuberculosis patient
[32] = test system: Pseudomonas aeruginosa; assay: Antimicrobial activity against Pseudomonas aeruginosa 65.36-3 tracheal isolates from mechanically ventilated tuberculosis patient
[33] = test system: Pseudomonas aeruginosa; assay: Antimicrobial activity against Pseudomonas aeruginosa 3D10 tracheal isolates from mechanically ventilated chronic respiratory insufficiency patient
[34] = test system: Pseudomonas aeruginosa; assay: Antimicrobial activity against Pseudomonas aeruginosa 2C1 tracheal isolates from mechanically ventilated tuberculosis patient
[35] = test system: Pseudomonas aeruginosa; assay: Antimicrobial activity against Pseudomonas aeruginosa P21.23 tracheal isolates from mechanically ventilated tuberculosis patient
[36] = test system: Pseudomonas aeruginosa; assay: Antimicrobial activity against Pseudomonas aeruginosa 3D1 tracheal isolates from mechanically ventilated chronic respiratory insufficiency patient
[37] = test system: Pseudomonas aeruginosa; assay: Antimicrobial activity against Pseudomonas aeruginosa 22D6 tracheal isolates from mechanically ventilated chronic respiratory insufficiency patient
[38] = test system: Pseudomonas aeruginosa; assay: Antimicrobial activity against Pseudomonas aeruginosa 5G3 tracheal isolates from mechanically ventilated chronic respiratory insufficiency patient
[39] = test system: Pseudomonas aeruginosa; assay: Antimicrobial activity against Pseudomonas aeruginosa 19D9 tracheal isolates from mechanically ventilated chronic respiratory insufficiency patient
[40] = test system: Pseudomonas aeruginosa; assay: Antimicrobial activity against Pseudomonas aeruginosa 19E9 tracheal isolates from mechanically ventilated chronic respiratory insufficiency patient
[41] = test system: Pseudomonas aeruginosa; assay: Antimicrobial activity against Pseudomonas aeruginosa 9A7 tracheal isolates from mechanically ventilated chronic respiratory insufficiency patient
[42] = test system: Pseudomonas aeruginosa; assay: Antimicrobial activity against Pseudomonas aeruginosa 29F6 tracheal isolates from mechanically ventilated chronic respiratory insufficiency patient
[43] = test system: Pseudomonas aeruginosa; assay: Antimicrobial activity against Pseudomonas aeruginosa 65.33-1 tracheal isolates from mechanically ventilated tuberculosis patient
[44] = test system: Pseudomonas aeruginosa; assay: Antimicrobial activity against Pseudomonas aeruginosa 65.68-3 tracheal isolates from mechanically ventilated tuberculosis patient
[45] = test system: Pseudomonas aeruginosa; assay: Antimicrobial activity against Pseudomonas aeruginosa 65.36-1 tracheal isolates from mechanically ventilated tuberculosis patient
[46] = test system: Pseudomonas aeruginosa; assay: Antimicrobial activity against Pseudomonas aeruginosa 2A3 tracheal isolates from mechanically ventilated tuberculosis patient
[47] = test system: Pseudomonas aeruginosa; assay: Antimicrobial activity against Pseudomonas aeruginosa 13D11 tracheal isolates from mechanically ventilated chronic respiratory insufficiency patient
[48] = test system: Pseudomonas aeruginosa; assay: Antimicrobial activity against Pseudomonas aeruginosa 65.68-1 tracheal isolates from mechanically ventilated tuberculosis patient
[49] = test system: Pseudomonas aeruginosa; assay: Antimicrobial activity against Pseudomonas aeruginosa 9A1 tracheal isolates from mechanically ventilated chronic respiratory insufficiency patient
[50] = test system: Pseudomonas aeruginosa; assay: Antimicrobial activity against Pseudomonas aeruginosa 8A12 tracheal isolates from mechanically ventilated chronic respiratory insufficiency patient
[51] = test system: Pseudomonas aeruginosa; assay: Antimicrobial activity against Pseudomonas aeruginosa 19E2 tracheal isolates from mechanically ventilated chronic respiratory insufficiency patient
[52] = test system: Pseudomonas aeruginosa; assay: Antimicrobial activity against Pseudomonas aeruginosa 65.68-2 tracheal isolates from mechanically ventilated tuberculosis patient
[53] = test system: Pseudomonas aeruginosa; assay: Antimicrobial activity against Pseudomonas aeruginosa 24G1 tracheal isolates from mechanically ventilated chronic respiratory insufficiency patient
[54] = test system: Pseudomonas aeruginosa; assay: Antimicrobial activity against Pseudomonas aeruginosa 9B5 tracheal isolates from mechanically ventilated chronic respiratory insufficiency patient
[55] = test system: Pseudomonas aeruginosa; assay: Antimicrobial activity against Pseudomonas aeruginosa 12B2 tracheal isolates from mechanically ventilated chronic respiratory insufficiency patient
[56] = test system: Pseudomonas aeruginosa; assay: Antimicrobial activity against Pseudomonas aeruginosa 3E2 tracheal isolates from mechanically ventilated chronic respiratory insufficiency patient
[57] = test system: Pseudomonas aeruginosa; assay: Antimicrobial activity against Pseudomonas aeruginosa 3B1 tracheal isolates from mechanically ventilated tuberculosis patient
[58] = test system: Pseudomonas aeruginosa; assay: Antimicrobial activity against Pseudomonas aeruginosa 22C5 tracheal isolates from mechanically ventilated chronic respiratory insufficiency patient
[59] = test system: Pseudomonas aeruginosa; assay: Antimicrobial activity against Pseudomonas aeruginosa 10B3 tracheal isolates from mechanically ventilated chronic respiratory insufficiency patient

## CCn1cc(C(=O)O)c(=O)c2cc(F)c(N3CCNCC3)cc21
[1]
  Activity: Active
[2]
  Activity: inactive
[3]
  Activity: Active
[4]
  Activity: Active
[5]
  Activity: Active
[6]
  Activity: Active
[7]
  Activity: Active
[8]
  Activity: Active
[9]
  Activity: Active
[10]
  Activity: Active
[11]
  Activity: Active
[12]
  Activity: Active
[13]
  Activity: Active
[14]
  Activity: Active
[15]
  Activity: Active
[16]
  Activity: Active
[17]
  Activity: Active
[18]
  Activity: Active
[19]
  Activity: Active
[20]
  Activity: Active
[21]
  Activity: Active
[22]
  Activity: Active
[23]
  Activity: Active
[24]
  Activity: Active
[25]
  Activity: Active
[26]
  Activity: Active
[27]
  Activity: Active
[28]
  Activity: Active
[29]
  Activity: Active
[30]
  Activity: Active
[31]
  Activity: Active
[32]
  Activity: Active
[33]
  Activity: Active
[34]
  Activity: Active
[35]
  Activity: Active
[36]
  Activity: Active
[37]
  Activity: Active
[38]
  Activity: Active
[39]
  Activity: inactive
[40]
  Activity: Active
[41]
  Activity: Active
[42]
  Activity: Active
[43]
  Activity: Active
[44]
  Activity: Active
[45]
  Activity: Active
[46]
  Activity: Active
[47]
  Activity: Active
[48]
  Activity: Active
[49]
  Activity: Active
[50]
  Activity: Active
[51]
  Activity: Active
[52]
  Activity: Active
[53]
  Activity: Active
[54]
  Activity: Active
[55]
  Activity: Active
[56]
  Activity: Active
[57]
  Activity: Active
[58]
  Activity: Active
[59]
  Activity: Active

## C[C@@H](O)[C@H]1C(=O)N2C(C(=O)O)=C(SCCNC=N)C[C@H]12
[1]
  Activity: Active
[2]
  Activity: Active
[3]
  Activity: inactive
[4]
  Activity: inactive
[5]
  Activity: Active
[6]
  Activity: Active
[7]
  Activity: Active
[8]
  Activity: Active
[9]
  Activity: inactive
[10]
  Activity: Active
[11]
  Activity: Active
[12]
  Activity: Active
[13]
  Activity: inactive
[14]
  Activity: inactive
[15]
  Activity: inactive
[16]
  Activity: Active
[17]
  Activity: Active
[18]
  Activity: Active
[19]
  Activity: Active
[20]
  Activity: Active
[21]
  Activity: Active
[22]
  Activity: Active
[23]
  Activity: inactive
[24]
  Activity: inactive
[25]
  Activity: inactive
[26]
  Activity: Active
[27]
  Activity: Active
[28]
  Activity: Active
[29]
  Activity: Active
[30]
  Activity: Active
[31]
  Activity: inactive
[32]
  Activity: inactive
[33]
  Activity: Active
[34]
  Activity: inactive
[35]
  Activity: Active
[36]
  Activity: Active
[37]
  Activity: Active
[38]
  Activity: Active
[39]
  Activity: Active
[40]
  Activity: Active
[41]
  Activity: Active
[42]
  Activity: Active
[43]
  Activity: inactive
[44]
  Activity: inactive
[45]
  Activity: inactive
[46]
  Activity: inactive
[47]
  Activity: Active
[48]
  Activity: inactive
[49]
  Activity: Active
[50]
  Activity: Active
[51]
  Activity: Active
[52]
  Activity: inactive
[53]
  Activity: Active
[54]
  Activity: Active
[55]
  Activity: Active
[56]
  Activity: Active
[57]
  Activity: inactive
[58]
  Activity: Active
[59]
  Activity: Active

## CO/N=C(\C(=O)N[C@@H]1C(=O)N2C(C(=O)[O-])=C(C[N+]3(C)CCCC3)CS[C@H]12)c1csc(N)n1
[1]
  Activity: Active
[2]
  Activity: Active
[3]
  Activity: Active
[4]
  Activity: inactive
[5]
  Activity: Active
[6]
  Activity: Active
[7]
  Activity: Active
[8]
  Activity: Active
[9]
  Activity: Active
[10]
  Activity: Active
[11]
  Activity: Active
[12]
  Activity: Active
[13]
  Activity: inactive
[14]
  Activity: Active
[16]
  Activity: Active
[17]
  Activity: Active
[18]
  Activity: Active
[19]
  Activity: Active
[20]
  Activity: Active
[21]
  Activity: Active
[22]
  Activity: Active
[23]
  Activity: Active
[25]
  Activity: inactive
[26]
  Activity: Active
[27]
  Activity: Active
[28]
  Activity: Active
[29]
  Activity: Active
[30]
  Activity: Active
[31]
  Activity: inactive
[33]
  Activity: Active
[34]
  Activity: inactive
[35]
  Activity: Active
[36]
  Activity: Active
[37]
  Activity: Active
[38]
  Activity: Active
[39]
  Activity: Active
[40]
  Activity: Active
[41]
  Activity: Active
[42]
  Activity: Active
[43]
  Activity: Active
[44]
  Activity: Active
[45]
  Activity: Active
[46]
  Activity: Active
[47]
  Activity: Active
[48]
  Activity: Active
[49]
  Activity: Active
[50]
  Activity: Active
[51]
  Activity: Active
[52]
  Activity: Active
[53]
  Activity: Active
[54]
  Activity: Active
[55]
  Activity: Active
[56]
  Activity: Active
[57]
  Activity: Active
[58]
  Activity: Active
[59]
  Activity: Active
